According to ChEMBL document CHEMBL1201862, “PubChem BioAssay data set” (2004):
Calls of active or inactive are those of the source.

Experiments:
Cytochrome P450 1A2 = target: T1, Cytochrome P450 1A2 (Homo sapiens, UniProt P05177);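 note: PubChem cytochrome P450 panel assay, CYP1A2 panel member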
T1 sequence (P05177 whole entry): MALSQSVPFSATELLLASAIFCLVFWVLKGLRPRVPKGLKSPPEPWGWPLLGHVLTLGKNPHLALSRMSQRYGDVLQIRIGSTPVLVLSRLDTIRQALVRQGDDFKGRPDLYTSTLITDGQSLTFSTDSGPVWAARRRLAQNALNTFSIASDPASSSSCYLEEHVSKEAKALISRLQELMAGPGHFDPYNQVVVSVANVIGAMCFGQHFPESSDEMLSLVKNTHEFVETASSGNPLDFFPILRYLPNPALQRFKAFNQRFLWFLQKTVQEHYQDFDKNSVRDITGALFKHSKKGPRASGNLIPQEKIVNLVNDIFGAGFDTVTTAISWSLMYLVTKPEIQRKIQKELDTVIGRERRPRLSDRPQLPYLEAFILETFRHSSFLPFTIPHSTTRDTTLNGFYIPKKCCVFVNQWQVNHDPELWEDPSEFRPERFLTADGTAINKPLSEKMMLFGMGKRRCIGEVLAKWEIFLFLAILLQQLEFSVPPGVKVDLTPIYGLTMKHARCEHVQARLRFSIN

Cytochrome P450 2D6 = Cytochrome P450 2D6 (Homo sapiens, UniProt P10635);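 note: CYP2D6 member of a cytochrome P450 panel assay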
Cytochrome P450 2D6, sequence (P10635 whole entry): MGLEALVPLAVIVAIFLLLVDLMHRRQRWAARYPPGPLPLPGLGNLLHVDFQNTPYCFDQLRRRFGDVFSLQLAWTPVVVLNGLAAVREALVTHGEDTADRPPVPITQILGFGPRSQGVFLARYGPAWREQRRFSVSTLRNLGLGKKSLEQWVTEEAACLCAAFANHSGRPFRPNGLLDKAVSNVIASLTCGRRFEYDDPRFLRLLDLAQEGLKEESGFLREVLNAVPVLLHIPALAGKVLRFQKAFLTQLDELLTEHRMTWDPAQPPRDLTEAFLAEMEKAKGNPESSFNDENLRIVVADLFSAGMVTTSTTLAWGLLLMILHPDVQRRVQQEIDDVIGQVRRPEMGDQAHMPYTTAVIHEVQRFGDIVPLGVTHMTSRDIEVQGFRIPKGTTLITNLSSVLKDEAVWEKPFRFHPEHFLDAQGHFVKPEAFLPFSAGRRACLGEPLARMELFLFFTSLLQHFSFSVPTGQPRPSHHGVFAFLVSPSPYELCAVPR

A-375 = experiment: MITF: Counter assay: A375 proliferation Measured in Cell-Based System Using Plate Reader - 2084-03_Inhibitor_Dose_DryPowder_Activity. [Related pubchem assays (depositor defined):AID488944]; type: functional; details: Homo sapiens
[1] = target: T2, Microphthalmia-associated transcription factor (Homo sapiens, UniProt O75030); experiment: reducers of TRPM1 reporter luminescence, concentration series – cell-based, SK-MEL-5, cherry-picked, set 3, MITF inhibitor project, dose response (AID 493073); type: functional;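 note: SK-MEL-5 melanoma cells with luciferase driven by the MITF target TRPM1 promoter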
T2 sequence (O75030 whole entry): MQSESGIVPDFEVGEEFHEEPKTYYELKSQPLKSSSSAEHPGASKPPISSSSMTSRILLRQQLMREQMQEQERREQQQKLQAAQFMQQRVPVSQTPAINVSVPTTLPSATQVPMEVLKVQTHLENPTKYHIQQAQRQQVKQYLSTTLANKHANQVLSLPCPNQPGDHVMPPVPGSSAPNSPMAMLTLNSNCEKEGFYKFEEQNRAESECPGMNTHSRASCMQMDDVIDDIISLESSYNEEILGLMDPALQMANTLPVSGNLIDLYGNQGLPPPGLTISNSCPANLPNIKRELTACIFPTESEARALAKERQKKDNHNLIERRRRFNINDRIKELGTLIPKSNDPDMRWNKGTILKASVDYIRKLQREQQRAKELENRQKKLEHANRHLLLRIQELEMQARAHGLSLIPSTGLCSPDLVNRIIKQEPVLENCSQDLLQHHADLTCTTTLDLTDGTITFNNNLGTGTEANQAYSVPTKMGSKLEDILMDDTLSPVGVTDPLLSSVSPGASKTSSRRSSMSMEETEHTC

Jurkat = experiment: blockers of NF-kB activation in T cells – Jurkat, luciferase reporter, luminescence, B- and T-cell, dose response (AID 489004); type: functional, cell-based; details: Homo sapiens;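 note: NF-kB luciferase reporter Jurkat cells stimulated with PMA plus ionomycin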
[2] = HEK-293T viability loss, compound-treated – cell-based, uHTS hits, cytotoxicity control for B/T-cell NF-kB inhibitor project, dose response (AID 489019); type: functional;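 note: IC50 reflects cytotoxicity as loss of cell viability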
[3] = fluconazole-exposed Candida albicans growth modulators – fluorescence, retest, confirmation (AID 2467); type: functional, cell-based
INS1 = experiment: INS-1E survival protection against cytokine death – cell-based, luminescence, retest, dose response (AID 449756); type: functional; details: Rattus norvegicus;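 note: cell death triggered by IL-1 beta plus TNF-alpha plus IFN-gamma mixture; protective hits raise ATP signal compared with cytokine alone wells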
[4] = NIH-3T3 fibroblast cytotoxicity, dose response, cytotoxicity control, cell-based, fluorescence, Alamar Blue, secondary assay (AID 2327); type: functional;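 note: NIH-3T3 mouse fibroblasts cultured with fluconazole at 8 µg/mL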
[5] = viability of PTEN-deleted HCT116 cells – cell-based, HCT116 PTEN knockout, dose response (AID 1047); type: functional;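 note: HCT116 colon tumor cells with PTEN knocked out; cells exposed to compound for 60 hours before readout; potency for loss of cell viability measured by luminescence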
[6] = target: T3, RNA-binding protein pos-1 (Caenorhabditis elegans, UniProt G5EF15); experiment: disruptors of C. elegans POS-1 RNA interaction – biochemical, fluorescence polarization, dose response (AID 1964);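 note: purified POS-1 fused to maltose binding protein made in E. coli; potency of compounds blocking POS-1 binding to fluorescent RNA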
T3 sequence (G5EF15 whole entry): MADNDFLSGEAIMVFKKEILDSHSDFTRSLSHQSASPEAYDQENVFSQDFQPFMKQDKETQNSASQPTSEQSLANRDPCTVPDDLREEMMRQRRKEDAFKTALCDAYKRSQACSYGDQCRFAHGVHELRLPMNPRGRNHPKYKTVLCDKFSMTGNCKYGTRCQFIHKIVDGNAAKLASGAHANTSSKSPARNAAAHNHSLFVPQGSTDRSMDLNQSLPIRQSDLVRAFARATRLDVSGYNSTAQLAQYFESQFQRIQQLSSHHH

Oxytocin receptor = Oxytocin receptor (Homo sapiens, UniProt P30559); experiment: Counterscreen for vasopressin 1 receptor (V1R) agonists: Fluorescence-based cell-based high throughput dose response assay for agonists of the Oxytocin Receptor (OXTR). [Related pubchem assays: 2435 (Primary screen (OXTR agonists in singlicate)), 434964 (Confirmation screen (V1R agonists in triplicate)), 434969 (Counterscreen (OXTR agonists in …; type: functional
Oxytocin receptor, sequence (P30559 whole entry): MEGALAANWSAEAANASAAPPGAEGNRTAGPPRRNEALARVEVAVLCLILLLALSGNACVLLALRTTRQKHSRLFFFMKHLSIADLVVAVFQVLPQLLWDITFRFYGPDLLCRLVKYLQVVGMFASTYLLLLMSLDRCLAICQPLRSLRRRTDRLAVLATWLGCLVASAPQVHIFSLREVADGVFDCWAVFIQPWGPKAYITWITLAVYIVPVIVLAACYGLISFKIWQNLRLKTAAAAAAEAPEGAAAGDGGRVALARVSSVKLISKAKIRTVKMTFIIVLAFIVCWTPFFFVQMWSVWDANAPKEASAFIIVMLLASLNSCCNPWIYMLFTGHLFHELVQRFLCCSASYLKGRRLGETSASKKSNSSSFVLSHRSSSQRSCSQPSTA

[7] = Luminescence Cell-Based Dose Confirmation HTS to Identify Activators of 5'UTR Stem-Loop Driven Alpha-Synuclein mRNA Translation in H4 Neuroglioblastoma Cells. [Related pubchem assays: 1829 (Project Summary), 1814 (Primary HTS)]; type: functional
[8] = viability of HCT116 lacking mutant beta-catenin – cell-based, human colon tumor, dose response (AID 1045); type: functional;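 note: HCT116 colon tumor cells with beta catenin knocked out; cells exposed to compound for 60 hours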
[9] = target: UDP-galactopyranose mutase (Mycobacterium tuberculosis, UniProt P9WIQ1); experiment: Inhibitors of Mycobacterium tuberculosis UDP-galactopyranose mutase (UGM) enzyme Measured in Biochemical System Using Plate Reader - 2105-02_Inhibitor_Dose_CherryPick_Activity. [Related pubchem assays (depositor defined):AID504439]
UDP-galactopyranose mutase, sequence (P9WIQ1 whole entry): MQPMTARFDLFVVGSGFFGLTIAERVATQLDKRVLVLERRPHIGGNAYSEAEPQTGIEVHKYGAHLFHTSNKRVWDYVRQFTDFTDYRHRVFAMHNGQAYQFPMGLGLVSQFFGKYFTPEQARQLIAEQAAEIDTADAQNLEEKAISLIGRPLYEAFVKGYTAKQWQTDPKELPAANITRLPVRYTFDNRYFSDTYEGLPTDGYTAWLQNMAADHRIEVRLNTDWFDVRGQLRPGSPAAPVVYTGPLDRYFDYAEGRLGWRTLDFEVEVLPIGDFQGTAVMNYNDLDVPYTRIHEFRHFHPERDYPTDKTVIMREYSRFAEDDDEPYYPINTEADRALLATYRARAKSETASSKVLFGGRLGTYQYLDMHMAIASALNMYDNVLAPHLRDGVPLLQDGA

H4 = experiment: Luminescence Cell-Based Dose Response HTS to Identify Activators of 5'UTR Stem-Loop Driven Prion Protein mRNA Translation in H4 Neuroglioblastoma Cells. [Related pubchem assays: 1829 (Project Summary), 1814 (Primary HTS)]; type: functional; details: Homo sapiens
[10] = target: T4, Zinc finger protein mex-5 (Caenorhabditis elegans, UniProt Q9XUB2); experiment: potency of MEX-5 RNA-binding blockers – biochemical, C. elegans, fluorescence polarization, dose response (AID 1960)
T4 sequence (Q9XUB2 whole entry): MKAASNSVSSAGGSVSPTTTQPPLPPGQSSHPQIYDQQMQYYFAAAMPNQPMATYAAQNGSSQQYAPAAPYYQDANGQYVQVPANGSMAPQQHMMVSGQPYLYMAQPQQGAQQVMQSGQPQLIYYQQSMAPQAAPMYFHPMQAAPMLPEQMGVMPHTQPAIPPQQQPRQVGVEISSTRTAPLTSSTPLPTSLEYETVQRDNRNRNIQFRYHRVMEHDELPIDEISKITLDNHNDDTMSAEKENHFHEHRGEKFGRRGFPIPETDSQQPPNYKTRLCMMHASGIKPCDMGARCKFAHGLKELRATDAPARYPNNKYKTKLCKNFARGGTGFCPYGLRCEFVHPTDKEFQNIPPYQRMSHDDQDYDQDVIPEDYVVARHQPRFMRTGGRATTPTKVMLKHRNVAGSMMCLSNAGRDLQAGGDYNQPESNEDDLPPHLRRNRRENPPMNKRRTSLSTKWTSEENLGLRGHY

[11] = Luminescence Cell-Based Dose Response HTS to Identify Activators of Luciferase Translation or Activity in H4 […] Cells. [Related pubchem assays: 1829 (Project Summary), 1814 (Primary HTS)]; type: functional
Vasopressin V1a receptor = Vasopressin V1a receptor (Homo sapiens, UniProt P37288); experiment: Fluorescence-based cell-based high throughput dose response screening assay for agonists of the vasopressin 1 receptor (V1R).; type: functional
Vasopressin V1a receptor, sequence (P37288 whole entry): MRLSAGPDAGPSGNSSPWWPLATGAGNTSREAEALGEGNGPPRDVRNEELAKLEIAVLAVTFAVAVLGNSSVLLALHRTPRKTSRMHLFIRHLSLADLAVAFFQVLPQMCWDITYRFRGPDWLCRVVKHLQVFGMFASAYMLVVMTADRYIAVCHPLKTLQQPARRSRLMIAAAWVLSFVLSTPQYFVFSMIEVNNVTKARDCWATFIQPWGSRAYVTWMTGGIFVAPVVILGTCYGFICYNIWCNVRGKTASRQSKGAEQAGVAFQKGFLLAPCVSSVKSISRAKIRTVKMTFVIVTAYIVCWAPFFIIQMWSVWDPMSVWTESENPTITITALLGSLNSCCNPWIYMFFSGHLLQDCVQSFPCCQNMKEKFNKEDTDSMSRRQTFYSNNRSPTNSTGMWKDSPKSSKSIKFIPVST

With `CCNC(=O)COC(=O)c1cc(O)nc2ccccc12` the AC50 (Cytochrome P450 1A2) was 15.8 µM (inconclusive) and the AC50 (Cytochrome P450 2D6) was “inconclusive”.
For `CCOc1ccc(-[n+]2c(-c3ccc(OC)cc3)cn3c2CCCCC3)cc1`, the AC50 (A-375) was 48 µM (active), the AC50 [1] was 2.13 µM (active) and the IC50 (Jurkat) was > 80 µM (inactive). The IC50 [2] was > 80 µM (inactive), the EC50 [3] was 0.48 µM (active) and the AC50 (INS1) was 0.312 µM (active). For the same molecule, the EC50 [4] was > 150 µM (inactive).
In the case of `O=C1c2cccc3c(N4CCCCC4)ccc(c23)C(=O)N1CCO`, the EC50 [5] is reported as 67.5 µM (active), the EC50 [6] is reported as 65.2 µM (active) and the EC50 (Oxytocin receptor) is reported as > 3.32 µM (active). For the same molecule, the EC50 [7] was 16.5 µM (active), the EC50 [8] was 164 µM (active) and the AC50 [9] was 151 µM (active). The EC50 (H4) was > 120 µM (not active), the EC50 [10] was 114 µM (active) and the EC50 [11] was 94.8 µM (active). The EC50 (Vasopressin V1a receptor) was 4.75 µM (active).
